Data as given in PubChem BioAssay (NCI).
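Tested at 5 concentrations; 48 h exposure; 96-well plates; endpoints linearly interpolated, else capped at highest concentration. GI50: concentration for 50% inhibition of growth. TGI denotes the concentration required for complete inhibition of growth.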

Experiments:
Experiment in all cases: growth of human tumour cells (NCI), 48 h
SF-295 CNS = tested on: SF-295 CNS
IGROV1 ovarian = tested on: IGROV1 ovarian
SF-268 CNS = tested on: SF-268 CNS
A549 NSCLC = tested on: A549 NSCLC
NCI/ADR-RES ovarian = tested on: NCI/ADR-RES ovarian
OVCAR-4 ovarian = tested on: OVCAR-4 ovarian
NCI-H522 lung = tested on: NCI-H522 lung
HS 578T breast = tested on: HS 578T breast
SK-OV-3 ovarian = tested on: SK-OV-3 ovarian
CAKI-1 renal = tested on: CAKI-1 renal
DU-145 prostate = tested on: DU-145 prostate
MDA-MB-435 = tested on: MDA-MB-435
SF-539 CNS = tested on: SF-539 CNS
MCF7 breast = tested on: MCF7 breast
PC-3 prostate = tested on: PC-3 prostate
HOP-62 NSCLC = tested on: HOP-62 NSCLC
UACC-62 melanoma = tested on: UACC-62 melanoma
T-47D breast = tested on: T-47D breast
MDA-MB-231 breast = tested on: MDA-MB-231 breast
OVCAR-5 ovarian = tested on: OVCAR-5 ovarian
SK-MEL-5 melanoma = tested on: SK-MEL-5 melanoma
SW-620 colon = tested on: SW-620 colon
RPMI-8226 leukemia = tested on: RPMI-8226 leukemia
SN12C renal = tested on: SN12C renal
MOLT-4 leukemia = tested on: MOLT-4 leukemia
OVCAR-8 ovarian = tested on: OVCAR-8 ovarian
M14 melanoma = tested on: M14 melanoma
786-0 renal = tested on: 786-0 renal
OVCAR-3 ovarian = tested on: OVCAR-3 ovarian
U251 CNS = tested on: U251 CNS
HCT-15 colon = tested on: HCT-15 colon
NCI-H460 lung = tested on: NCI-H460 lung
COLO 205 colon = tested on: COLO 205 colon
CCRF-CEM leukemia = tested on: CCRF-CEM leukemia
TK-10 renal = tested on: TK-10 renal
SK-MEL-2 melanoma = tested on: SK-MEL-2 melanoma
RXF 393 renal = tested on: RXF 393 renal
HT29 colon = tested on: HT29 colon
HCT-116 colon = tested on: HCT-116 colon
SK-MEL-28 melanoma = tested on: SK-MEL-28 melanoma
KM12 colon = tested on: KM12 colon
BT-549 breast = tested on: BT-549 breast
LOX IMVI melanoma = tested on: LOX IMVI melanoma
EKVX NSCLC = tested on: EKVX NSCLC
SNB-19 CNS = tested on: SNB-19 CNS
SNB-75 CNS = tested on: SNB-75 CNS
K-562 leukemia = tested on: K-562 leukemia
ACHN renal = tested on: ACHN renal
UACC-257 melanoma = tested on: UACC-257 melanoma
HOP-92 NSCLC = tested on: HOP-92 NSCLC
HCC-2998 colon = tested on: HCC-2998 colon
UO-31 renal = tested on: UO-31 renal
NCI-H23 lung = tested on: NCI-H23 lung
NCI-H226 lung = tested on: NCI-H226 lung

O=C(c1ccccc1)n1c(-c2ccccc2)cs/c1=N\S(=O)(=O)c1ccc(N2N=C3c4ccccc4CC3C2c2cccs2)cc1 (stereo not drawn)
GI50 (SF-295 CNS): 37.1 µM | TGI (SF-295 CNS): > 100 µM | GI50 (IGROV1 ovarian): > 100 µM | TGI (IGROV1 ovarian): > 100 µM | GI50 (SF-268 CNS): > 100 µM | TGI (SF-268 CNS): > 100 µM | GI50 (A549 NSCLC): 39.5 µM | TGI (A549 NSCLC): > 100 µM | GI50 (NCI/ADR-RES ovarian): > 100 µM | TGI (NCI/ADR-RES ovarian): > 100 µM | GI50 (OVCAR-4 ovarian): > 100 µM | TGI (OVCAR-4 ovarian): > 100 µM | GI50 (NCI-H522 lung): 32.7 µM | TGI (NCI-H522 lung): > 100 µM | GI50 (HS 578T breast): 17 µM | TGI (HS 578T breast): > 100 µM | GI50 (SK-OV-3 ovarian): > 100 µM | TGI (SK-OV-3 ovarian): > 100 µM | GI50 (CAKI-1 renal): 38 µM | TGI (CAKI-1 renal): > 100 µM | GI50 (DU-145 prostate): 47 µM | TGI (DU-145 prostate): > 100 µM | GI50 (MDA-MB-435): 31.1 µM | TGI (MDA-MB-435): > 100 µM | GI50 (SF-539 CNS): 58.6 µM | TGI (SF-539 CNS): > 100 µM | GI50 (MCF7 breast): > 100 µM | TGI (MCF7 breast): > 100 µM | GI50 (PC-3 prostate): 39.2 µM | TGI (PC-3 prostate): > 100 µM | GI50 (HOP-62 NSCLC): 23.7 µM | TGI (HOP-62 NSCLC): 57.1 µM | GI50 (UACC-62 melanoma): 27.3 µM | TGI (UACC-62 melanoma): 87.2 µM | GI50 (T-47D breast): > 100 µM | TGI (T-47D breast): > 100 µM | GI50 (MDA-MB-231 breast): 41.3 µM | TGI (MDA-MB-231 breast): > 100 µM | GI50 (OVCAR-5 ovarian): 34.3 µM | TGI (OVCAR-5 ovarian): > 100 µM | GI50 (SK-MEL-5 melanoma): 24.4 µM | TGI (SK-MEL-5 melanoma): > 100 µM | GI50 (SW-620 colon): 58.8 µM | TGI (SW-620 colon): > 100 µM | GI50 (RPMI-8226 leukemia): 32.3 µM | TGI (RPMI-8226 leukemia): > 100 µM | GI50 (SN12C renal): 44.4 µM | TGI (SN12C renal): > 100 µM | GI50 (MOLT-4 leukemia): 0.305 µM | TGI (MOLT-4 leukemia): 21.2 µM | GI50 (OVCAR-8 ovarian): 42.9 µM | TGI (OVCAR-8 ovarian): > 100 µM | GI50 (M14 melanoma): 33 µM | TGI (M14 melanoma): > 100 µM | GI50 (786-0 renal): 21.8 µM | TGI (786-0 renal): 96.7 µM | GI50 (OVCAR-3 ovarian): 55.2 µM | TGI (OVCAR-3 ovarian): > 100 µM | GI50 (U251 CNS): 32 µM | TGI (U251 CNS): > 100 µM | GI50 (HCT-15 colon): 61.4 µM | TGI (HCT-15 colon): > 100 µM | GI50 (NCI-H460 lung): > 100 µM | TGI (NCI-H460 lung): > 100 µM | GI50 (COLO 205 colon): 98.1 µM | TGI (COLO 205 colon): > 100 µM | GI50 (CCRF-CEM leukemia): 41.3 µM | TGI (CCRF-CEM leukemia): > 100 µM | GI50 (TK-10 renal): 30.5 µM | TGI (TK-10 renal): 70.7 µM | GI50 (SK-MEL-2 melanoma): > 100 µM | TGI (SK-MEL-2 melanoma): > 100 µM | GI50 (RXF 393 renal): 37.1 µM | TGI (RXF 393 renal): > 100 µM | GI50 (HT29 colon): 73.7 µM | TGI (HT29 colon): > 100 µM | GI50 (HCT-116 colon): 30.5 µM | TGI (HCT-116 colon): > 100 µM | GI50 (SK-MEL-28 melanoma): > 100 µM | TGI (SK-MEL-28 melanoma): > 100 µM | GI50 (KM12 colon): 38.3 µM | TGI (KM12 colon): > 100 µM | GI50 (BT-549 breast): 67.9 µM | TGI (BT-549 breast): > 100 µM | GI50 (LOX IMVI melanoma): 30.7 µM | TGI (LOX IMVI melanoma): > 100 µM | GI50 (EKVX NSCLC): 40.7 µM | TGI (EKVX NSCLC): > 100 µM | GI50 (SNB-19 CNS): 59.3 µM | TGI (SNB-19 CNS): > 100 µM | GI50 (SNB-75 CNS): > 100 µM | TGI (SNB-75 CNS): > 100 µM | GI50 (K-562 leukemia): 27.6 µM | TGI (K-562 leukemia): > 100 µM | GI50 (ACHN renal): 43.8 µM | TGI (ACHN renal): > 100 µM | GI50 (UACC-257 melanoma): 45.7 µM | TGI (UACC-257 melanoma): > 100 µM | GI50 (HOP-92 NSCLC): > 100 µM | TGI (HOP-92 NSCLC): > 100 µM | GI50 (HCC-2998 colon): 14 µM | TGI (HCC-2998 colon): 32.6 µM | GI50 (UO-31 renal): 98.1 µM | TGI (UO-31 renal): > 100 µM | GI50 (NCI-H23 lung): 13 µM | TGI (NCI-H23 lung): 39.4 µM | GI50 (NCI-H226 lung): 30.1 µM | TGI (NCI-H226 lung): 85.2 µM
